According to PubChem BioAssay (NCI):
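Cells were grown in 96-well plates and exposed to each compound for 48 hours at five concentrations; endpoints were interpolated linearly between bracketing concentrations, or set to the highest concentration if not reached. GI50: concentration for 50% inhibition of growth. TGI: concentration producing complete growth inhibition.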

Experiments:
Assay in all cases: NCI-60 cell line screen, 48 h
NCI-H460 lung = system: NCI-H460 lung
SF-295 CNS = system: SF-295 CNS
RXF 393 renal = system: RXF 393 renal
BT-549 breast = system: BT-549 breast
SF-539 CNS = system: SF-539 CNS
HOP-62 NSCLC = system: HOP-62 NSCLC
ACHN renal = system: ACHN renal
UACC-257 melanoma = system: UACC-257 melanoma
NCI/ADR-RES ovarian = system: NCI/ADR-RES ovarian
SK-MEL-28 melanoma = system: SK-MEL-28 melanoma

SMILES	TGI (NCI-H460 lung) [µM]	TGI (SF-295 CNS) [µM]	TGI (RXF 393 renal) [µM]	TGI (BT-549 breast) [µM]	TGI (SF-539 CNS) [µM]	TGI (HOP-62 NSCLC) [µM]	TGI (ACHN renal) [µM]	TGI (UACC-257 melanoma) [µM]	TGI (NCI/ADR-RES ovarian) [µM]	TGI (SK-MEL-28 melanoma) [µM]	GI50 (NCI-H460 lung) [µM]	GI50 (SF-295 CNS) [µM]	GI50 (SK-MEL-28 melanoma) [µM]	GI50 (RXF 393 renal) [µM]	GI50 (BT-549 breast) [µM]	GI50 (SF-539 CNS) [µM]	GI50 (ACHN renal) [µM]	GI50 (UACC-257 melanoma) [µM]	GI50 (NCI/ADR-RES ovarian) [µM]	GI50 (HOP-62 NSCLC) [µM]
CCN(CC)CCCC(C)Nc1ccnc2cc3ccccc3cc12 (centres undefined)	24.4	24.6	31.4	29.2	> 100	> 100	21	46.1	> 100	–	–	–	–	–	–	–	–	–	–	–
O=C(C[C@H](NC(=O)OCc1ccccc1)C(=O)NC1Cc2ccccc2OC1=O)OCc1ccccc1 (some centres undefined)	> 100	–	> 100	> 100	–	> 100	–	–	> 100	> 100	–	–	–	–	–	–	–	–	–	–
Cc1ccc(NP(=O)(Oc2ccccc2)N(CCCl)CCCl)cc1 (centres undefined)	–	> 100	–	–	> 100	> 100	> 100	> 100	–	> 100	–	–	–	–	–	–	–	–	–	–
OC1(c2ccc(Cl)cc2)c2c(ccc3c2OCO3)C2=NCCN21 (centres undefined)	> 100	> 100	86	> 100	> 100	> 100	> 100	37.2	> 100	34.6	–	–	–	–	–	–	–	–	–	–
O=C(O)c1cc(=O)[nH]c(SCc2ccccc2)n1	> 100	> 100	> 100	> 100	–	> 100	> 100	> 100	> 100	> 100	–	–	–	–	–	–	–	–	–	–
CC(C)CCC[C@@H](C)[C@H]1CC[C@H]2[C@@H]3CC[C@H]4C[C@H](N)CC[C@]4(C)[C@H]3CC[C@]12C	> 100	45.5	> 100	67.6	–	70.7	36.2	41.6	95.3	95	–	–	–	–	–	–	–	–	–	–
COc1ccc(C2CC(c3cccc(Nc4ccncc4)c3)=NN2c2ccc(Cl)cc2)cc1 (centres undefined)	3.37	3.3	3.03	4	3.03	–	2.9	3.87	3.3	3.2	1.81	1.85	1.73	1.59	1.92	1.63	1.56	1.95	1.73	–
Cc1cccc2cc3c(ccc4ccccc43)c[n+]12	93.7	41.5	> 100	54.1	66.2	> 100	> 100	37.9	> 100	34.3	–	–	–	–	–	–	–	–	–	–
N#Cc1c(NC(=S)Nc2ccc(Cl)cc2)sc2c1CCCC2	–	> 100	> 100	> 100	–	–	> 100	> 100	> 100	> 100	–	–	–	–	–	–	–	–	–	–
CC(=O)Oc1c(C)c2c(O)c3c1C1=C(OCOC1=C(C)C3=O)/C(C)=C\C(C)(O)C(O)C(C)C(O)C1C(=O)OC(C(C)C1O)C(C)(O)/C=C/C=C(C)C(=O)N2 (centres undefined)	> 100	> 100	70.4	> 100	46.8	> 100	> 100	> 100	> 100	> 100	–	–	–	–	–	–	–	–	–	–
CSc1nc(NC2OCC(OC(C)=O)C(OC(C)=O)C2OC(C)=O)c(N=C(C)C(C)=O)c(=O)[nH]1 (centres undefined)	> 100	> 100	> 100	–	> 100	–	> 100	> 100	–	> 100	–	–	–	–	–	–	–	–	–	–
O=S1(=O)C(c2ccccc2)C(N2CCCCC2)C1C1CC2c3ccccc3C1c1ccccc12 (centres undefined)	> 100	> 100	> 100	> 100	> 100	> 100	> 100	> 100	> 100	> 100	–	–	–	–	–	–	–	–	–	–
COc1ccc2c(c1)CCN=C2Cc1cc(OC)c(OC)cc1CCCl	> 100	> 100	91.4	> 100	65.7	49.6	> 100	> 100	> 100	> 100	–	–	–	–	–	–	–	–	–	–
O=C(C=P(c1ccccc1)(c1ccccc1)c1ccccc1)c1cccc(-c2cccc([N+](=O)[O-])c2)c1	> 100	35.3	> 100	> 100	54.4	> 100	15.7	–	> 100	10.9	–	–	–	–	–	–	–	–	–	–
CN(c1cc2ncc(=O)[nH]c2cc1NC(N)=NCc1ccc(Cl)cc1)C1CCCCC1	14.5	14.9	13	14.6	14.6	19.6	14.2	19.2	50	13.7	7.14	7.42	6.71	5.79	7.4	7.68	7.12	9.77	23.1	8.84
CCN1C=C/C(=C\C=C/c2cc[n+](CC)c3ccccc23)c2ccccc21	11	12.5	70.3	51.2	9.08	8.18	33.8	9.76	> 100	21.8	–	–	–	–	–	–	–	–	–	–
CCOC(=O)C[C@@H]1C2(C=C[C@@]13CO3)OCC(C)(C)CO2	> 100	> 100	> 100	> 100	> 100	> 100	–	> 100	> 100	> 100	–	–	–	–	–	–	–	–	–	–
C=CCc1cc(-c2cc(CC=C)c(O)c(CNC)c2)cc(CNC)c1O	30.1	31	–	–	–	33.4	31.7	29.9	–	34	–	–	–	–	–	–	–	–	–	–
CCCCCCCCCCCCCCCc1ccc(OCC(O)CO)cc1 (centres undefined)	53.6	> 100	35.4	–	> 100	> 100	> 100	> 100	–	62.2	–	–	–	–	–	–	–	–	–	–
c1ccc(C2CC(c3cccc(Nc4ccncc4)c3)=NN2c2ccccc2)cc1 (centres undefined)	3.25	3.13	–	3.87	3.12	–	3.05	4.15	3.54	3.19	1.72	1.72	1.76	–	1.88	1.71	1.69	1.94	1.74	–
CC(C)(C)OC(=O)NCC(=O)NC1c2ccsc2/C(=N/O)[C@H]1O (some centres undefined)	> 100	> 100	> 100	> 100	> 100	> 100	–	> 100	> 100	> 100	–	–	–	–	–	–	–	–	–	–
CO/C=C(/C(=O)OC)c1ccccc1[C@@H]1CC1c1cccc(F)c1 (some centres undefined)	> 100	> 100	> 100	61.4	58.1	> 100	62.7	52.4	91.8	> 100	–	–	–	–	–	–	–	–	–	–
Cc1nc2c(n1C)C(=O)c1nc(CBr)[nH]c(=O)c1C2=O	> 100	5.27	> 100	–	> 100	–	> 100	–	–	> 100	–	–	–	–	–	–	–	–	–	–
